The text below walks through data of patent US5880130A, “4,6-dianilino-pyrimidine derivatives, their preparation and their use as tyrosine kinase inhibitors” (Zeneca Limited, priority 1993, dated 1999).

Experiment [1] deals with human naso-pharyngeal cancer cell line KB. The experiment in a line: Test (b): inhibition of EGF-stimulated growth of the cancer cell line KB. As to conditions: 72 h, KB cell growth with EGF (10 ng/ml), 3 days, MTT. The class given is cell-based. As for the experimental part: (b) An in vitro assay which determines the ability of a test compound to inhibit the EGF-stimulated growth of the human naso-pharyngeal cancer cell line KB.
KB cells were seeded into wells at a density of 1×10^4 -1.5×10^4 cells per well and grown for 24 hours in DMEH supplemented with 5% FCS (charcoal-stripped). Cell growth was determined after incubation for 3 days by the extent of metabolism of MTT tetrazolium dye to furnish a bluish colour. Cell growth was then determined in the presence of EGF (10 ng/ml) or in the presence of EGF (10 ng/ml) and a test compound at a range of concentrations. An IC50 value could then be calculated.

For another experiment, the system named is liver hepatocyte growth. Description: Test (c): inhibition of TGFα-stimulated liver hepatocyte growth in rats. Type of experiment: in vivo. As to conditions: Rattus norvegicus, male rats, usually oral, TGFα 400 μg/kg subcutaneously, BrdU uptake, approximate ED50. The method, then: (c) An in vivo assay in a group of male rats which determines the ability of a test compound (usually administered orally as a ball-milled suspension in 0.5% polysorbate) to inhibit the stimulation of liver hepatocyte growth caused by the administration of the growth factor TGFα (400 μg/kg subcutaneously, usually dosed twice, 3 and 7 hours respectively after the administration of the test compound).
In a control group of rats, the administration of TGFα causes on average a 5-fold stimulation of liver hepatocyte growth.
Cell-growth in the control and test animals is determined as follows:
On the morning of the day after the dosing of the test compound (or 0.5% polysorbate in the control group), the animals are dosed with bromodeoxyuridine (BrdU; 100 mg/kg intraperitoneally). The animals are killed four hours later and the livers are excised. […] Further tests were carried out using a range of doses of the test compounds to allow the calculation of an approximate ED50 value for the inhibition of liver hepatocyte proliferation as determined by inhibition of the uptake of BrdU.

Experiment [2] has as its target T1, EGF receptor tyrosine kinase (Homo sapiens, UniProt P00533).
T1 construct: Receptor tyrosine kinase was obtained in partially purified form from A-431 cells; endogenous in cells; host or cells: A-431 cells (human vulval carcinoma); Triton X-100 solubilised membrane fraction
The experiment in a line: Test (a): in vitro inhibition of EGF receptor tyrosine kinase. Conditions: A-431 cell enzyme, [γ-32P]ATP/peptide phosphorylation, 25° C. 10 minutes. The class given is biochemical, human (A-431 cells, derived from human vulval carcinoma). The method, then:
(a) An in vitro assay which determines the ability of a test compound to inhibit the enzyme EGF receptor tyrosine kinase. Receptor tyrosine kinase was obtained in partially purified form from A-431 cells (derived from human vulval carcinoma) by procedures related to those described by Carpenter et al., J. Biol. Chem., 1979, 254, 4884, Cohen et al., J. Biol. Chem., 1982, 257, 1523 and by Braun et al., J. Biol. Chem., 1984, 259, 2051.
A-431 cells were grown to confluence using Dulbecco's modified Eagle's medium (DMEM) containing 5% fetal calf serum (FCS). The obtained cells were homogenised in a hypotonic borate/EDTA buffer at pH 10.1. The homogenate was centrifuged at 400 g for 10 minutes at 0°-4° C. The supernatant was centrifuged at 25,000 g for 30 minutes at 0°-4° C. […]
The test compound/EGF mixture solution (5 μl) was added to the test enzyme solution (10 μl) and the mixture was incubated at 0-4° C. for 30 minutes. […] Radioactivity present in the filter paper was measured using a liquid scintillation counter (Sequence A). […]
Receptor tyrosine kinase inhibition was calculated as follows: [formula]
The extent of inhibition was then determined at a range of concentrations of test compound to give an IC50 value.

In experiment [3] the test system is transplanted human mammary carcinoma which expresses EGF receptor tyrosine kinase. As to conditions: athymic nude mice; Toi et al. 1990; cited from earlier work.
Experiment [4] has as its system another carcinoma which does not express EGF receptor tyrosine kinase. As to conditions: Toi et al. 1990; cited from earlier work.

T1 sequence (P00533 25-1210): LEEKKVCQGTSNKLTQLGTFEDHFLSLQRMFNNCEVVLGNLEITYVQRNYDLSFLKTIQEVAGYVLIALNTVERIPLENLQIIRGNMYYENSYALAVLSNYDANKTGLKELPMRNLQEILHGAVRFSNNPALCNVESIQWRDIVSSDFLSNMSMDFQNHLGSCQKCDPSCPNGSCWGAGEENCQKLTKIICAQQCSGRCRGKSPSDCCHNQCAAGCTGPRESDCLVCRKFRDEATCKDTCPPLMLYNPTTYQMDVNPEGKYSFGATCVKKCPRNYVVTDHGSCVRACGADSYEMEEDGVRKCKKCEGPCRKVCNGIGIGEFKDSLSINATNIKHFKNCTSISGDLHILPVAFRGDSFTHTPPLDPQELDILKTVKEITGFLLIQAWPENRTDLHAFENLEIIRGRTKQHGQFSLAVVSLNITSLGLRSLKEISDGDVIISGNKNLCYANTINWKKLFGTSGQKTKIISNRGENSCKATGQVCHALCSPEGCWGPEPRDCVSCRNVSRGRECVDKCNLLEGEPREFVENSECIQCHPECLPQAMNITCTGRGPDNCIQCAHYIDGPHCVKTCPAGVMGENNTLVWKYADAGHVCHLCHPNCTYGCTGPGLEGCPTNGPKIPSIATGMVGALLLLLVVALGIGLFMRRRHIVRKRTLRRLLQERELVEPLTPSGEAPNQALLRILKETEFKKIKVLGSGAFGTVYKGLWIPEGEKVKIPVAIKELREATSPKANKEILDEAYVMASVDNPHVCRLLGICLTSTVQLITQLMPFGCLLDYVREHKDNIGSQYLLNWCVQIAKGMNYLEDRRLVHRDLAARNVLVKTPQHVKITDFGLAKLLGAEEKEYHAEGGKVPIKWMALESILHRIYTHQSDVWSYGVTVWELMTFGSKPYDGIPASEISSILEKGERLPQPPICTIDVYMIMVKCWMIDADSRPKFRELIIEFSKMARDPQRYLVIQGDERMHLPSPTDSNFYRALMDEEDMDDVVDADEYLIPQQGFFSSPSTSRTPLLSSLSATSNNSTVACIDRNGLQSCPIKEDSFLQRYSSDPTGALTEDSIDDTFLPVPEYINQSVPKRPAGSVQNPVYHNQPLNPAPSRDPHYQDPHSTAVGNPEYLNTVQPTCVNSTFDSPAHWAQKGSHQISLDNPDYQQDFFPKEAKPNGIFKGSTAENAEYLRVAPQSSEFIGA

For the compound `Cc1cccc(Nc2cc(Nc3ccc(OCCO)cc3)ncn2)c1` [4-[4'-(2-hydroxyethoxy)anilino]6-(3'-methylanilino)pyrimidine], in experiment [1], 1.07 µM corresponded to half-maximal inhibition (IC50). The ED50 in the experiment on liver hepatocyte growth was under 12.5 mg/kg.

As for `Cc1cccc(Nc2cc(Nc3cccc(C)c3)ncn2)c1` [4,6-di-(3'-methylanilino)pyrimidine], the values for the IC50 in experiment [2] and in experiment [1] were 0.24 µM and 1.1 µM, respectively. Further, in the experiment with liver hepatocyte growth, the ED50 was under 12.5 mg/kg.

As for `Cc1cccc(Nc2cc(Nc3ccc(OCC(O)CN(C)C)cc3)ncn2)c1` (stereo not drawn) [4-[4'-(3-dimethylamino-2-hydroxypropoxy)anilino]6-(3'-methylanilino)pyrimidine], the results for the IC50 in experiment [2] and in experiment [1] were 0.01 µM and 0.31 µM, respectively.

`O=CN/C=C/c1cc(O)ccc1O` [erbstatin]: the “effect on growth of transplanted human mammary carcinoma expressing EGF receptor tyrosine kinase” value in experiment [3] is given as “specifically attenuates the growth”. The “effect on growth of another carcinoma which does not express EGF receptor tyrosine kinase” value in experiment [4] is reported as “without effect on the growth”.

As a reminder, the IC50 is the concentration at which inhibition is half-maximal. A high value points to a need for much substance. Usually ED50 stands for the midpoint of the dose-response relation. A lower ED50 goes with an effect at a small dose.
